Laboratory results from US20110136666A1, “CHEMICAL COMPOUNDS” (SYNGENTA CROP PROTECTION, INC., priority 2008, published 2011).

Assays:
[1] = test system: Setaria faberi (SETFA); experiment: Pre-emergence biological efficacy, glasshouse pot test; format: in vivo; conditions: 312 h, 1000 g/ha, after 13 days, 100=total damage, 0=no damage, read-out: Percentage damage caused to weed species SETFA
Summary of the method: (§1)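 Pots sown with weed seeds, sprayed 1 day after sowing with test compound in acetone/water (50:50) plus 0.5% Tween 20 at 250 or 1000 g/ha. Plants grown in glasshouse at 24/16° C day/night, 14 h light, 65% humidity, watered twice daily. Damage scored visually after 13 days (0 = none, 100 = total).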

[2] = test system: Echinochloa crus-galli (ECHCG); experiment: as above; format: in vivo; conditions: 312 h, 1000 g/ha, after 13 days, 100=total damage, 0=no damage, read-out: Percentage damage caused to weed species ECHCG
Summary of the method: as §1

[3] = test system: Solanum nigrum (SOLNI); experiment: as above; format: in vivo; conditions: 312 h, 1000 g/ha, after 13 days, 100=total damage, 0=no damage, read-out: Percentage damage caused to weed species SOLNI
Summary of the method: as §1

[4] = test system: Amaranthus retroflexus (AMARE); experiment: as above; format: in vivo; conditions: 312 h, 1000 g/ha, after 13 days, 100=total damage, 0=no damage, read-out: Percentage damage caused to weed species AMARE
Summary of the method: as §1

[5] = test system: Ipomea hederaceae (IPOHE); experiment: as above; format: in vivo; conditions: Ipomoea hederacea, 312 h, 1000 g/ha, after 13 days, 100=total damage, 0=no damage, read-out: Percentage damage caused to weed species IPOHE
Summary of the method: as §1

[6] = test system: Alopecurus myosuroides (ALOMY); experiment: as above; format: in vivo; conditions: 312 h, 1000 g/ha, after 13 days, 100=total damage, 0=no damage, read-out: Percentage damage caused to weed species ALOMY
Summary of the method: as §1

[7] = test system: Setaria faberi (SETFA); experiment: Post-emergence biological efficacy, glasshouse pot test; format: in vivo; conditions: 312 h, 1000 g/ha, after 13 days, 100=total damage, 0=no damage, read-out: Percentage damage caused to weed species SETFA
Summary of the method: (§2)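 Species sown in soil and grown 8 days in glasshouse (24/16 °C day/night, 14 h light, 65% humidity), then sprayed with compound in acetone/water (50:50) with 0.5% Tween 20 at 250 or 1000 g/ha. Damage scored visually after 13 days (0 = none, 100 = total).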

[8] = test system: Echinochloa crus-galli (ECHCG); experiment: as above; format: in vivo; conditions: 312 h, 1000 g/ha, after 13 days, 100=total damage, 0=no damage, read-out: Percentage damage caused to weed species ECHCG
Summary of the method: as §2

[9] = test system: Solanum nigrum (SOLNI); experiment: as above; format: in vivo; conditions: 312 h, 1000 g/ha, after 13 days, 100=total damage, 0=no damage, read-out: Percentage damage caused to weed species SOLNI
Summary of the method: as §2

[10] = test system: Amaranthus retroflexus (AMARE); experiment: as above; format: in vivo; conditions: 312 h, 1000 g/ha, after 13 days, 100=total damage, 0=no damage, read-out: Percentage damage caused to weed species AMARE
Summary of the method: as §2

[11] = test system: Ipomea hederaceae (IPOHE); experiment: as above; format: in vivo; conditions: Ipomoea hederacea, 312 h, 1000 g/ha, after 13 days, 100=total damage, 0=no damage, read-out: Percentage damage caused to weed species IPONE
Summary of the method: as §2

[12] = test system: Alopecurus myosuroides (ALOMY); experiment: as above; format: in vivo; conditions: 312 h, 1000 g/ha, after 13 days, 100=total damage, 0=no damage, read-out: Percentage damage caused to weed species ALOMY
Summary of the method: as §2

## CCOC(=O)c1nc(-c2ccccn2)nc(N)c1Cl [Compound 3-149, 4-amino-5-chloro-6-ethoxycarbonyl-2-pyridin-2-ylpyrimidine]
other
  melting point: 176 to 180 °C (dec.)
[1]
  pest or weed control at 1000 g/ha: 0%
[2]
  pest or weed control at 1000 g/ha: 0%
[3]
  pest or weed control at 1000 g/ha: 0%
[4]
  pest or weed control at 1000 g/ha: 0%
[5]
  pest or weed control at 1000 g/ha: 0%
[6]
  pest or weed control at 1000 g/ha: 0%
[7]
  pest or weed control at 1000 g/ha: 0%
[8]
  pest or weed control at 1000 g/ha: 0%
[9]
  pest or weed control at 1000 g/ha: 0%
[10]
  pest or weed control at 1000 g/ha: 0%
[11]
  pest or weed control at 1000 g/ha: 0%
[12]
  pest or weed control at 1000 g/ha: 0%

## COC(=O)c1nc(-c2ccc(C#N)nc2)nc(N)c1Cl [Compound 2-158, 4-amino-5-chloro-2-(2-cyanopyridin-5-yl)-6-methoxycarbonylpyrimidine]
other
  melting point: 210 to 213 °C
[1]
  pest or weed control at 1000 g/ha: 0%
[2]
  pest or weed control at 1000 g/ha: 0%
[3]
  pest or weed control at 1000 g/ha: 0%
[4]
  pest or weed control at 1000 g/ha: 0%
[5]
  pest or weed control at 1000 g/ha: 0%
[6]
  pest or weed control at 1000 g/ha: 0%
[7]
  pest or weed control at 1000 g/ha: 0%
[8]
  pest or weed control at 1000 g/ha: 0%
[9]
  pest or weed control at 1000 g/ha: 20%
[10]
  pest or weed control at 1000 g/ha: 0%
[11]
  pest or weed control at 1000 g/ha: 20%
[12]
  pest or weed control at 1000 g/ha: 0%

## COC(=O)c1nc(-c2cnn(C)c2)nc(N)c1Cl [Compound 2-71, 4-amino-5-chloro-6-methoxycarbonyl-2-(1-methyl-1H-pyrazol-4-yl)-pyrimidine]
other
  melting point: 185 to 186 °C
[1]
  pest or weed control at 1000 g/ha: 0%
[2]
  pest or weed control at 1000 g/ha: 0%
[3]
  pest or weed control at 1000 g/ha: 0%
[4]
  pest or weed control at 1000 g/ha: 0%
[5]
  pest or weed control at 1000 g/ha: 0%
[6]
  pest or weed control at 1000 g/ha: 0%
[7]
  pest or weed control at 1000 g/ha: 0%
[8]
  pest or weed control at 1000 g/ha: 0%
[9]
  pest or weed control at 1000 g/ha: 0%
[10]
  pest or weed control at 1000 g/ha: 0%
[11]
  pest or weed control at 1000 g/ha: 30%
[12]
  pest or weed control at 1000 g/ha: 0%

## C=Cc1c(N)nc(-c2ccc(Cl)nc2)nc1C(=O)OC [Compound 68-156, 4-amino-2-(6-chloropyridin-3-yl)-5-ethenyl-6-methoxycarbonyl-pyrimidine]
other
  melting point: 194 to 195 °C
[1]
  pest or weed control at 1000 g/ha: 10%
[2]
  pest or weed control at 1000 g/ha: 0%
[3]
  pest or weed control at 1000 g/ha: 40%
[4]
  pest or weed control at 1000 g/ha: 100%
[5]
  pest or weed control at 1000 g/ha: 40%
[6]
  pest or weed control at 1000 g/ha: 10%
[7]
  pest or weed control at 1000 g/ha: 0%
[8]
  pest or weed control at 1000 g/ha: 0%
[9]
  pest or weed control at 1000 g/ha: 90%
[10]
  pest or weed control at 1000 g/ha: 100%
[11]
  pest or weed control at 1000 g/ha: 50%
[12]
  pest or weed control at 1000 g/ha: 0%

## Nc1nc(-c2ccccn2)nc(C(=O)O)c1Cl [Compound 1-149, 4-amino-5-chloro-2-pyridin-2-ylpyrimidine-6-carboxylic acid]
other
  melting point: 183 °C (dec.)
[1]
  pest or weed control at 1000 g/ha: 0%
[2]
  pest or weed control at 1000 g/ha: 0%
[3]
  pest or weed control at 1000 g/ha: 0%
[4]
  pest or weed control at 1000 g/ha: 0%
[5]
  pest or weed control at 1000 g/ha: 0%
[6]
  pest or weed control at 1000 g/ha: 0%
[7]
  pest or weed control at 1000 g/ha: 0%
[8]
  pest or weed control at 1000 g/ha: 0%
[9]
  pest or weed control at 1000 g/ha: 0%
[10]
  pest or weed control at 1000 g/ha: 0%
[11]
  pest or weed control at 1000 g/ha: 0%
[12]
  pest or weed control at 1000 g/ha: 0%

## Nc1nc(-c2ccc(Cl)s2)nc(C(=O)O)c1Cl [Compound 1-2, 4-amino-5-chloro-2-(5-chlorothiophen-2-yl)-pyrimidine-6-carboxylic acid]
[1]
  pest or weed control at 1000 g/ha: 0%
[2]
  pest or weed control at 1000 g/ha: 0%
[3]
  pest or weed control at 1000 g/ha: 30%
[4]
  pest or weed control at 1000 g/ha: 100%
[5]
  pest or weed control at 1000 g/ha: 0%
[6]
  pest or weed control at 1000 g/ha: 0%
[7]
  pest or weed control at 1000 g/ha: 50%
[8]
  pest or weed control at 1000 g/ha: 20%
[9]
  pest or weed control at 1000 g/ha: 80%
[10]
  pest or weed control at 1000 g/ha: 100%
[11]
  pest or weed control at 1000 g/ha: 60%
[12]
  pest or weed control at 1000 g/ha: 10%
